Values joined by “and” are separate entries in the source; they are usually repeats but may differ in a detail not shown here. Identical values can stand only once. Values belong to the compound of their own block, whether it stands above or below them. Numbered stars: 1 amine (or outer) side, 2 acyl side, 3 side chain; on linkers, the order of the positions; unused ones are H or OH. Side chains are listed from the residue outwards. Peptide text beside a SMILES is read from it. * marks the point of attachment. γGlu = O=C(O)[C@H](CCC(=O)[*:2])N[*:1]; Palmitoyl = CCCCCCCCCCCCCCCC(=O)*
Experiments:
Human GIPr = molecular target: T1, Human GIPr (Homo sapiens, UniProt P48546); test: cAMP activity assay (assay 1) in assay medium; assay type: cell-based; details: Table 4, additional peptides, read-out: hGIPR EC50
T1 sequence (P48546 22-466): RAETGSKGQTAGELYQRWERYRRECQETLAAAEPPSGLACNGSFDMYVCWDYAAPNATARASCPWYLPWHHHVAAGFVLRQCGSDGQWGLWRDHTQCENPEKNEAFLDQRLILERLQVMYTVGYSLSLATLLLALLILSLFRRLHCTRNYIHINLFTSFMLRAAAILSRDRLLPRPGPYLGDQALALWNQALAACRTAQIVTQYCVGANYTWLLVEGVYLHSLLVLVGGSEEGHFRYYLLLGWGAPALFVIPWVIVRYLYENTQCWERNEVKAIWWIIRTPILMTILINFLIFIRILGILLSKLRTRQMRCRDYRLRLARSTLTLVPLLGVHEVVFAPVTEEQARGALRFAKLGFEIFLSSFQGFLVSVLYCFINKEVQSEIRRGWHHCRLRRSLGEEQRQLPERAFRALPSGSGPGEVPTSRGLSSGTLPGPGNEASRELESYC

[1] = frozen blank plasma from rat; details: 37° C., up to 48 hours
[2] = frozen blank plasma from mouse; details: 37° C., up to 48 hours
Human GLP1R = Human GLP1R (Homo sapiens, UniProt P43220); test: cAMP activity assay (assay 1) in assay medium; assay type: cell-based; details: Table 4, additional peptides, read-out: hGLP1R EC50
Sequence of Human GLP1R (P43220 24-463): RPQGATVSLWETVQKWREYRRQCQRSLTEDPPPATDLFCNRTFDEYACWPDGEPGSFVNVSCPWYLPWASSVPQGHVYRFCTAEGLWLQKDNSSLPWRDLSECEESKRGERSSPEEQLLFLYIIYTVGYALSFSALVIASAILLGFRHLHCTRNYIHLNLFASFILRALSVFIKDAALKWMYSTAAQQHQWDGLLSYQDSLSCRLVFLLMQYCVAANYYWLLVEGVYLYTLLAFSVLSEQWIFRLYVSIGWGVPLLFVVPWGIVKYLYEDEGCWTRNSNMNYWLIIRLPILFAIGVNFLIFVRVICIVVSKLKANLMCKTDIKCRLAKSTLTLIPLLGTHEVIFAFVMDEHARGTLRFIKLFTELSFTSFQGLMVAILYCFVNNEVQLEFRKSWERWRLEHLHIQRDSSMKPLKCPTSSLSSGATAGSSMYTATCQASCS

Human GlucR [3] = molecular target: T2, Human GlucR (Homo sapiens, UniProt P47871); test: cAMP activity assay (assay 1) in assay medium; assay type: cell-based; details: Table 4, additional peptides, read-out: hGlucR EC50
T2 construct: expressed in transfected cells
T2 sequence (P47871 26-477): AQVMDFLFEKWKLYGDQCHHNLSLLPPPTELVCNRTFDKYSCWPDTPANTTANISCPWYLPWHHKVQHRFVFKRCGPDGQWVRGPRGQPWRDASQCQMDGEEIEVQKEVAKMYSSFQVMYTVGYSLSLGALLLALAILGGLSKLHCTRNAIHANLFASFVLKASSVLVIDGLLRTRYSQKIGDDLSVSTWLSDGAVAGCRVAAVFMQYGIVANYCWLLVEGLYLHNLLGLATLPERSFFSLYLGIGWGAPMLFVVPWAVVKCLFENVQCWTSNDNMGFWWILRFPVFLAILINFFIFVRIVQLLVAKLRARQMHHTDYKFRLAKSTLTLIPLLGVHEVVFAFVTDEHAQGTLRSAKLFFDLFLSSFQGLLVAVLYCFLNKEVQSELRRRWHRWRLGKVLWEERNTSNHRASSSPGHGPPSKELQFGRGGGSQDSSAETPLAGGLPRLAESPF

Human GlucR [4] = molecular target: T2, Human GlucR; test: cAMP assay in presence of serum albumin (assay 2), 4.4% human serum albumin; assay type: cell-based; details: relative potency GlucR / relative potency GLP1R vs native ligands
Protocol: (§1) CHO cells with stable recombinant expression of the human, mouse or rat GlucR or GLP-t receptor were cultured in DMEM 10% FBS and geneticin (100 μg/mil). Cryopreserved cell stocks were prepared in 1× cell freezing medium-DMSO serum free (Sigma Aldrich) at 2×10^7/vial and stored at […]. […] Peptides were serially diluted in DMSO and then diluted 100 fold into DMEM containing serum albumin at stated final concentration. […] Cells were added to the assay plates and incubated for 30 min at room temperature. Following incubation the assay was stopped and cAMP levels measured using the HTRF® dynamic d2 cAMP assay kit available from CisBio Bioassays, as per the manufacturer's guidelines. Plates were read on Perkin Elmer ENVISION® fluorescence plate readers. Human and rat serum albumin were purchased from Sigma Aldrich and mouse serum albumin from Equitech Bio Ltd.

Mouse GlucR = molecular target: T3, Mouse GlucR (Mus musculus, UniProt Q61606); test: cAMP assay in presence of serum albumin (assay 2), 3.2% mouse serum albumin; assay type: cell-based; details: relative potencies vs native ligands
T3 construct: expressed in transfected cells
T3 sequence (Q61606 27-485): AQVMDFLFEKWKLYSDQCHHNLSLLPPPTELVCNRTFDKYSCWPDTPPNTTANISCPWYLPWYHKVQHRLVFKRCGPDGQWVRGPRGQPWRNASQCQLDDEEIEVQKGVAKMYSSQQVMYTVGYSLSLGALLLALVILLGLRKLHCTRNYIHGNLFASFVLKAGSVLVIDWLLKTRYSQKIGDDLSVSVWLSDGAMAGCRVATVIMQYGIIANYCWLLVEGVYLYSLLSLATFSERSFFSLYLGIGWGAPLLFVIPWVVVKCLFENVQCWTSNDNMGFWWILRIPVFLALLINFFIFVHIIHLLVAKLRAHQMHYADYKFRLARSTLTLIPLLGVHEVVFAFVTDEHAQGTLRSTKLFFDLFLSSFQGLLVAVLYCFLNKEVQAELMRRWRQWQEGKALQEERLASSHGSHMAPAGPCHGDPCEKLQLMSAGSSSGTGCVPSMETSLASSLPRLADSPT
Protocol: as §1

EC50 (Human GIPr): 3.32 nM
Compound: CCCCCCCCCCCCCCCC(=O)N[C@@H](CCC(=O)NCCCC[C@H](NC(=O)[C@H](CO)NC(=O)[C@H](CC(=O)O)NC(=O)[C@H](CC(C)C)NC(=O)[C@H](Cc1ccc(O)cc1)NC(=O)[C@H](CCCCN)NC(=O)[C@H](CO)NC(=O)[C@H](Cc1ccc(O)cc1)NC(=O)[C@H](CC(=O)O)NC(=O)[C@H](CO)NC(=O)[C@@H](NC(=O)[C@H](Cc1ccccc1)NC(=O)[C@@H](NC(=O)CNC(=O)[C@H](CCC(N)=O)NC(=O)CNC(=O)[C@@H](N)Cc1c[nH]cn1)[C@@H](C)O)[C@@H](C)O)C(=O)N[C@@H](CCCNC(=N)N)C(=O)N[C@@H](C)C(=O)N[C@@H](CCCNC(=N)N)C(=O)N[C@@H](CC(=O)O)C(=O)N[C@@H](Cc1ccccc1)C(=O)N[C@H](C(=O)N[C@@H](CCC(=O)O)C(=O)N[C@@H](Cc1c[nH]c2ccccc12)C(=O)N[C@@H](CC(C)C)C(=O)N[C@H](C(=O)N[C@@H](C)C(=O)NCC(=O)NCC(N)=O)C(C)C)C(C)C)C(=O)O [g660] (H-HGQGTFTSDYSKYLDSK([γGlu-Palmitoyl])RARDFVEWLVAGG-NH2; N-terminus assumed)

fragment found [1]: DPP IV-cleavage product, 3% at 24 h
Compound: HSQGTFTSDXSRYLDSRSARDFVAWLEAGG-amide X10 = K(gE-palm)

fragment found [1]: DPP cleaved product, minor
fragment found [2]: DPP cleaved product, minor
Compound: HSQGTFTSDXSEYLDSERARDFVAWLEAGG-amide X10 = K(gE-palm)

fragment found [1]: DPP IV-cleavage product, 2% at 24 h
Compound: HSQGTFTSDYSKXLDSERARDFVAWLVAGG-amide X13 = K(gE-palm)
fragment found [2]: DPP IV-cleavage product, 14% at 24 h and +1 DPP cleaved product, 5% at 24 h

EC50 (Human GLP1R): 0.1 nM
EC50 (Human GlucR [3]): 0.362 nM
Compound: CCCCCCCCCCCCCCCC(=O)N[C@@H](CCC(=O)NCCCC[C@H](NC(=O)[C@H](CO)NC(=O)[C@H](CC(=O)O)NC(=O)[C@H](CC(C)C)NC(=O)[C@H](Cc1ccc(O)cc1)NC(=O)[C@H](CCCCN)NC(=O)[C@H](CO)NC(=O)[C@H](Cc1ccc(O)cc1)NC(=O)[C@H](CC(=O)O)NC(=O)[C@H](CO)NC(=O)[C@@H](NC(=O)[C@H](Cc1ccccc1)NC(=O)[C@@H](NC(=O)CNC(=O)[C@H](CCC(N)=O)NC(=O)CNC(=O)[C@@H](N)Cc1c[nH]cn1)[C@@H](C)O)[C@@H](C)O)C(=O)N[C@@H](CCCNC(=N)N)C(=O)N[C@@H](C)C(=O)N[C@@H](CCC(N)=O)C(=O)N[C@@H](CC(=O)O)C(=O)N[C@@H](Cc1ccccc1)C(=O)N[C@H](C(=O)N[C@@H](CCC(N)=O)C(=O)N[C@@H](Cc1c[nH]c2ccccc12)C(=O)N[C@@H](CC(C)C)C(=O)N[C@H](C(=O)N[C@@H](C)C(=O)NCC(=O)NCC(N)=O)C(C)C)C(C)C)C(=O)O [g3 ? 0]

Human GlucR/GLP1R Ratio (Human GlucR [4]): 0.013
Mouse GlucR/GLP1R Ratio (Mouse GlucR): 0.006
Compound: CCCCCCCCCCCCCCCC(=O)N[C@@H](CCC(=O)NCCCC[C@H](NC(=O)[C@H](CO)NC(=O)[C@H](CC(=O)O)NC(=O)[C@H](CC(C)C)NC(=O)[C@H](Cc1ccc(O)cc1)NC(=O)[C@H](CCCCN)NC(=O)[C@H](CO)NC(=O)[C@H](Cc1ccc(O)cc1)NC(=O)[C@H](CC(=O)O)NC(=O)[C@H](CO)NC(=O)[C@@H](NC(=O)[C@H](Cc1ccccc1)NC(=O)[C@@H](NC(=O)CNC(=O)[C@H](CCC(N)=O)NC(=O)CNC(=O)[C@@H](N)Cc1c[nH]cn1)[C@@H](C)O)[C@@H](C)O)C(=O)N[C@@H](CCCNC(=N)N)C(=O)N[C@@H](C)C(=O)N[C@@H](CCC(N)=O)C(=O)N[C@@H](CC(=O)O)C(=O)N[C@@H](Cc1ccccc1)C(=O)N[C@H](C(=O)N[C@@H](CCC(N)=O)C(=O)N[C@@H](Cc1c[nH]c2ccccc12)C(=O)N[C@@H](CC(C)C)C(=O)N[C@H](C(=O)N[C@@H](C)C(=O)NCC(=O)NCC(N)=O)C(C)C)C(C)C)C(=O)O [Peptide G380]

EC50 (Human GIPr): 0.0741 nM
Compound: CCCCCCCCCCCCCCCC(=O)N[C@@H](CCC(=O)NCCCC[C@H](NC(=O)[C@H](Cc1ccc(O)cc1)NC(=O)[C@H](CCCCN)NC(=O)[C@H](CO)NC(=O)[C@H](Cc1ccc(O)cc1)NC(=O)[C@H](CC(=O)O)NC(=O)[C@H](CO)NC(=O)[C@@H](NC(=O)[C@H](Cc1ccccc1)NC(=O)[C@@H](NC(=O)CNC(=O)[C@H](CCC(N)=O)NC(=O)[C@H](CO)NC(=O)[C@@H](N)Cc1c[nH]cn1)[C@@H](C)O)[C@@H](C)O)C(=O)N[C@@H](CC(=O)O)C(=O)N[C@@H](CO)C(=O)N[C@@H](CCCNC(=N)N)C(=O)N[C@@H](CCCNC(=N)N)C(=O)N[C@@H](C)C(=O)N[C@@H](CCC(N)=O)C(=O)N[C@@H](CC(=O)O)C(=O)N[C@@H](Cc1ccccc1)C(=O)N[C@H](C(=O)N[C@@H](CCC(N)=O)C(=O)N[C@@H](Cc1c[nH]c2ccccc12)C(=O)N[C@@H](CC(C)C)C(=O)N[C@@H](CCC(=O)O)C(=O)N[C@@H](C)C(=O)NCC(=O)NCC(N)=O)C(C)C)C(=O)O [g601] (H-HSQGTFTSDYSKYK([γGlu-Palmitoyl])DSRRAQDFVQWLEAGG-NH2; N-terminus assumed)

EC50 (Human GLP1R): 0.0261 nM
EC50 (Human GlucR [3]): 0.0103 nM
Compound: CC(C)C[C@H](NC(=O)[C@H](Cc1ccc(O)cc1)NC(=O)[C@H](CCCCN)NC(=O)[C@H](CO)NC(=O)[C@H](Cc1ccc(O)cc1)NC(=O)[C@H](CC(=O)O)NC(=O)[C@H](CO)NC(=O)[C@@H](NC(=O)[C@H](Cc1ccccc1)NC(=O)[C@@H](NC(=O)CNC(=O)[C@H](CCC(N)=O)NC(=O)[C@H](CO)NC(=O)[C@@H](N)Cc1c[nH]cn1)[C@@H](C)O)[C@@H](C)O)C(=O)N[C@@H](CC(=O)O)C(=O)N[C@@H](CO)C(=O)N[C@@H](CCCNC(=N)N)C(=O)N[C@@H](CCCNC(=N)N)C(=O)N[C@@H](C)C(=O)N[C@@H](CCC(N)=O)C(=O)N[C@@H](CC(=O)O)C(=O)N[C@@H](Cc1ccccc1)C(=O)N[C@H](C(=O)N[C@@H](CCC(N)=O)C(=O)N[C@@H](Cc1c[nH]c2ccccc12)C(=O)N[C@@H](CC(C)C)C(=O)N[C@H](C(=O)N[C@@H](C)C(=O)NCC(=O)NCC(=O)NCC(=O)NCC(=O)NCC(=O)NCC(=O)N[C@@H](CCCCN)C(N)=O)C(C)C)C(C)C [g32 ?]
